Like-named read-outs stand apart in the source and are kept apart here.
What was measured:
M3R = target: T1, M3R (Homo sapiens, UniProt P20309); assay: Radioligand binding assay, [3H] NMS; conditions: [3H] NMS 0.2 nM
T1 construct: expressed in transfected cells; host or cells: HEK293 cell membranes
Protocol: Radioligand binding assays were conducted using MicroBeta2 (PerkinElmer, USA). Membrane protein preparations MOR and M3R were each prepared at a concentration of 2.5 µg/well. The radio ligands [^3H] DAMGO (specific for MOR) and [^3H]-NMS (specific for M3R) were prepared at concentrations of 0.5 nM and 0.2 nM, respectively. […] For each well, 1 µL of the serially diluted test compounds was transferred, followed by the addition of 100 µL of membrane stock solution and 100 µL of radioligand. The plates were sealed and shaken at 300 rpm at room temperature for one hour. Upon completion of the binding assay, the contents of each well were filtered through Unifilter-96 GF/C filter plates (PerkinElmer, USA). The filter plates were dried for one hour at 50°C and sealed. The trapped ^3H (tritium) on the filters was then quantified using the MicroBeta2. The percentage of inhibition or binding was subsequently calculated.

mu opioid receptor (MOR) = target: T2, mu opioid receptor (MOR) (Homo sapiens, UniProt P35372); assay: DMR assay in HEK293T-Mu cells (agonist, desensitization, antagonist); format: cell-based
T2 construct: expressed in transfected cells; host or cells: HEK293T-Mu
T2 sequence (P35372 whole entry): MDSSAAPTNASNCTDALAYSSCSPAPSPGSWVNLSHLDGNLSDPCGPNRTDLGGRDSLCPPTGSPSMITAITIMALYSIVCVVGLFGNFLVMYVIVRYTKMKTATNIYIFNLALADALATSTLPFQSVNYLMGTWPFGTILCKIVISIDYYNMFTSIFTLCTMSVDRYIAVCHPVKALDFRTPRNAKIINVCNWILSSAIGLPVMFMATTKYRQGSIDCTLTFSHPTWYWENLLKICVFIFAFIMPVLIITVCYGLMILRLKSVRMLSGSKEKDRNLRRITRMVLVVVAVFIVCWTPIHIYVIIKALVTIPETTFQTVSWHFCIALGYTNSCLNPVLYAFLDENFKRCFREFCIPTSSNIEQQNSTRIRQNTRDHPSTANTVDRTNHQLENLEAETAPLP
Protocol: (§1) DMR assays were performed using an Epic® BT system (Corning, NY, USA). All used cell lines were directly seeded in Epic 384-well biosensor microplates with a seeding density of 25,000 cells per well. After being cultured for about 22 h, the cells formed a monolayer with a confluency of about 95 % in the cell culture medium. Then the cells were manually washed using assay buffer (1 × HBSS buffer, 10 mM HEPES, pH = 7.4) and maintained in 30 μL of the assay buffer for 1 h. All samples were dissolved in DMSO and diluted freshly with the assay buffer containing 0.1 % BSA.
(§2) The DMR assays were conducted as follows. […] In the case of the DMR desensitization assay, cells were pretreated with analytes for one hour before introducing a specific agonist at the indicated concentration, and the agonist-induced DMR signals were monitored for one hour. Finally, for the DMR antagonist assay, cells underwent a 1-hour pretreatment with an antagonist before the addition of a specific agonist at the indicated concentration, and subsequent DMR signals were recorded over one hour.

[1] = target: T3, serotonin receptor 5-HT2A (Homo sapiens, UniProt P28223); assay: DMR desensitization assay, HEK293-5HT2A, probe 5-hydroxytryptamine; format: cell-based; conditions: 100 μM DK
T3 construct: expressed in transfected cells; host or cells: HEK293-5HT2A
T3 sequence (P28223 whole entry): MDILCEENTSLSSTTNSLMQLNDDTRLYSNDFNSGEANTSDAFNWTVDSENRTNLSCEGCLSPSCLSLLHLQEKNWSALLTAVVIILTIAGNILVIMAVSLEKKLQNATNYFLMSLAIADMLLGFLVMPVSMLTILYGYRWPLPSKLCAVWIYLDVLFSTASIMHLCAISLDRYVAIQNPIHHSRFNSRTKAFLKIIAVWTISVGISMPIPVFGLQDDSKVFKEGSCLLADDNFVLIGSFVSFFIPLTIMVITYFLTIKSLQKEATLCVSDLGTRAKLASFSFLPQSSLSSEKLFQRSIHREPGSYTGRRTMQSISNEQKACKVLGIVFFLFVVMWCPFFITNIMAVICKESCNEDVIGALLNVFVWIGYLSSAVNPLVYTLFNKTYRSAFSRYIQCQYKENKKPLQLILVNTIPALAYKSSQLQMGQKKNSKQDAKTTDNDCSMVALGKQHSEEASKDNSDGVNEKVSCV
Protocol: as §1
(§3) The receptor selectivity was evaluated against a set of G protein-coupled receptors (GPCRs), including opioid receptor (Delta/Kappa/NOP), dopamine receptor (D1/D2), orphan receptor (GPR35), adrenergic receptor (α2A/β2), serotonin receptor (5HT2A), histamine receptor (H1) and cannabinoid receptor (CB1). Following a 1-hour pretreatment with DK, a 2-min baseline was established before introducing probes and monitoring DMR signals for another hour. The cells and probes were as follows: Delta, HEK293-Delta, SNC162; Kappa, HEK293-Kappa, ICI199441; NOP, HEK293-NOP, MCOPPB; D1, HEK293-D1, dopamine; D2, HEK293-D2, dopamine; GPR35, CHO-K1-hGPR35, zaprinast; 5HT2A, HEK293-5HT2A, 5-hydroxytryptamine; α2A, HEK293-α2A, L-Noradrenaline; β2, A431, isoprenaline; H1, A431, histamine; CB1, CHO-K1-CB1, CP 55940. […]

M5R = target: T4, M5R (Homo sapiens, UniProt P08912); assay: FLIPR assay in CHO-M5 cells (carbachol-induced Ca2+); format: cell-based; conditions: DK pretreatment one hour
T4 construct: expressed in transfected cells
T4 sequence (P08912 whole entry): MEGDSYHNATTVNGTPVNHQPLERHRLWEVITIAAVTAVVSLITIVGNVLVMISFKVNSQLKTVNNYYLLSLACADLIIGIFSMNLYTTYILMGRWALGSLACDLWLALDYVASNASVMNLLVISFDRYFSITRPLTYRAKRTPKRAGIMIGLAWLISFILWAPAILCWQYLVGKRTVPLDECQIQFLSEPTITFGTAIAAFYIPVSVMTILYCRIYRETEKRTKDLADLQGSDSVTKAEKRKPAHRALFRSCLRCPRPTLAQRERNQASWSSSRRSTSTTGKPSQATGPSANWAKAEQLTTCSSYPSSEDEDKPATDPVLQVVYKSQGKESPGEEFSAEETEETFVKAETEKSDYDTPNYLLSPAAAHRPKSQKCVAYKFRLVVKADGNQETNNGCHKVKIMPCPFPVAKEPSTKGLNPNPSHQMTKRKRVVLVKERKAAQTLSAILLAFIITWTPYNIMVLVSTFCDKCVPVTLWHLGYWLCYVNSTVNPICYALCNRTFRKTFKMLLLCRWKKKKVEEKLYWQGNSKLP
Protocol: FLIPR assay was carried out as reported earlier. Cell lines were seeded in 96-well plates with black walls (Greiner, USA) at 8.0 × 10^4 cells per well. After approximately 22 h of incubation, the cells were exposed to Calcium-6 dye (Molecular Devices, USA) in HBSS buffer supplemented with 20 mM HEPES (pH 7.4) at 37°C for one hour. Samples, redissolved in DMSO and housed in 96-well drug plates, underwent dilution with FLIPR buffer and subsequent automated introduction to the cells. […] […] Results were presented as fluorescence (arbitrary units) plotted against time.

Delta opioid receptor = target: T5, Delta opioid receptor (Homo sapiens, UniProt P41143); assay: DMR agonist and desensitization assay in HEK293-Delta cells; format: cell-based
T5 construct: expressed in transfected cells; host or cells: HEK293-Delta
T5 sequence (P41143 whole entry): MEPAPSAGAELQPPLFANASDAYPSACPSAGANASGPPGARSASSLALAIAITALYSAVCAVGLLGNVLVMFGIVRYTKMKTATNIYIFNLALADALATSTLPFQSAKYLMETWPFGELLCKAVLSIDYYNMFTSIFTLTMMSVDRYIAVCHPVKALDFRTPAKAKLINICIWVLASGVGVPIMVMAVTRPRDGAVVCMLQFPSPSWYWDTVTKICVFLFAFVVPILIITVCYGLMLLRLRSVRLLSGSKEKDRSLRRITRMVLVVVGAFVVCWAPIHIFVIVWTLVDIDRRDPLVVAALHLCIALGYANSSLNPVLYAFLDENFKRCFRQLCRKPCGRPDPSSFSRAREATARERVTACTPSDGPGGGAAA
Protocol: as §1, §2
The receptor selectivity was evaluated against a set of G protein-coupled receptors (GPCRs), including opioid receptor (Delta/Kappa/NOP), dopamine receptor (D1/D2), orphan receptor (GPR35), adrenergic receptor (α2A/β2), serotonin receptor (5HT2A), histamine receptor (H1) and cannabinoid receptor (CB1). Following a 1-hour pretreatment with DK, a 2-min baseline was established before introducing probes and monitoring DMR signals for another hour. The cells and probes were as follows: Delta, HEK293-Delta, SNC162; Kappa, HEK293-Kappa, ICI199441; NOP, HEK293-NOP, MCOPPB; D1, HEK293-D1, dopamine; D2, HEK293-D2, dopamine; GPR35, CHO-K1-hGPR35, zaprinast; 5HT2A, HEK293-5HT2A, 5-hydroxytryptamine; α2A, HEK293-α2A, L-Noradrenaline; β2, A431, isoprenaline; H1, A431, histamine; CB1, CHO-K1-CB1, CP 55940. The other detailed process was the same as above.

dopamine receptor D1 = target: T6, dopamine receptor D1 (Homo sapiens, UniProt P21728); assay: DMR desensitization assay, HEK293-D1, probe dopamine; format: cell-based; conditions: 100 μM DK
T6 construct: expressed in transfected cells; host or cells: HEK293-D1
T6 sequence (P21728 whole entry): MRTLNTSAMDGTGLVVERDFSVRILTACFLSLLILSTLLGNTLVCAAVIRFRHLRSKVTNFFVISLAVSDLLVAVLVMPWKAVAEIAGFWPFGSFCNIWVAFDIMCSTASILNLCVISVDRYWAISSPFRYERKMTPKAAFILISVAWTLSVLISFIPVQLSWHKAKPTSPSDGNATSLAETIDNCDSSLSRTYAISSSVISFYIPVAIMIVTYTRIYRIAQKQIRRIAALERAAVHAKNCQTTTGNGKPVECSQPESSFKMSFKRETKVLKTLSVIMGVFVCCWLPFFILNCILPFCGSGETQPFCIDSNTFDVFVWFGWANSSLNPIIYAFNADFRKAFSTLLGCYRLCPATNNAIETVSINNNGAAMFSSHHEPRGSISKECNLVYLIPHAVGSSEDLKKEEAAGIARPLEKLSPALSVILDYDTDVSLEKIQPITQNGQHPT
Protocol: as §1, §3

histamine receptor H1 = target: T7, histamine receptor H1 (Homo sapiens, UniProt P35367); assay: DMR desensitization assay, A431, probe histamine; format: cell-based; conditions: 100 μM DK
T7 construct: endogenous in cells; host or cells: A431
T7 sequence (P35367 whole entry): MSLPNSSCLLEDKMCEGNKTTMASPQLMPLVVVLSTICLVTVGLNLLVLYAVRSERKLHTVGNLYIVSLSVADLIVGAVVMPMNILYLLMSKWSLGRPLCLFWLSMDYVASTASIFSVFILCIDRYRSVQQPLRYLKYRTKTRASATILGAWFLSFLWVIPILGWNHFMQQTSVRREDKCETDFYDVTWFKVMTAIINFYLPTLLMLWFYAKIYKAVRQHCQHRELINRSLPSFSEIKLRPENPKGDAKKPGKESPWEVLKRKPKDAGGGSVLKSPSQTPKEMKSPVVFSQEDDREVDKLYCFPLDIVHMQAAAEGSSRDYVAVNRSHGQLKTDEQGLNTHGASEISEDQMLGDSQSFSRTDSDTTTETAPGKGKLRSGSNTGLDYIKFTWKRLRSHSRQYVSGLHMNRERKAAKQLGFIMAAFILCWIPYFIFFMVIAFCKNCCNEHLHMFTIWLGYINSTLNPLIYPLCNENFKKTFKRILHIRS
Protocol: as §1, §3

[2] = Pharmacokinetics, oral bioavailability; format: in vivo, SD male rats; conditions: rats, 20 mg/kg (method)
Protocol: Oral bioavailability evaluation was as follows. SD male rats (about 250 g) were used in bioavailability evaluation (n = 3). […] were given a single dose of DK (20 mg/kg, 5 mL/kg, […].) through intragastric administration or tail vein injection. Blood (300 μL) was collected at 0.083, 0.167, 0.25, 0.5, 1, 2, 4, 6, 8, and 10 h, into EDTA tubes. Plasma was obtained by mixing with acetonitrile and centrifugation (3000 r/min, 10 min).
Brain and plasma drug levels were measured by LC-30AD (Shimadzu Corporation Kyoto, Japan) and SCIEX QTRAP-6500 (AB Sciex, Foster City, CA, USA) and calculated by comparing with internal standard (koumine, 200 ng/mL). The used column was Waters ACQUITY UPLC BEH C18 (2.1*150 mm, 1.7 μm); the mobile phase was composed of (A) 0.1 % FA in water and (B) 0.1 % FA in ACN; the elution gradient was 20 % B (0–3 min), 20–40 % B (3–5 min), 40–95 % B (5–6 min); the flow rate was 0.3 mL/min; and detection was in the positive mode.

dopamine receptor D2 = target: T8, dopamine receptor D2 (Homo sapiens, UniProt P14416); assay: DMR desensitization assay, HEK293-D2, probe dopamine; format: cell-based; conditions: 100 μM DK
T8 construct: expressed in transfected cells; host or cells: HEK293-D2
T8 sequence (P14416 whole entry): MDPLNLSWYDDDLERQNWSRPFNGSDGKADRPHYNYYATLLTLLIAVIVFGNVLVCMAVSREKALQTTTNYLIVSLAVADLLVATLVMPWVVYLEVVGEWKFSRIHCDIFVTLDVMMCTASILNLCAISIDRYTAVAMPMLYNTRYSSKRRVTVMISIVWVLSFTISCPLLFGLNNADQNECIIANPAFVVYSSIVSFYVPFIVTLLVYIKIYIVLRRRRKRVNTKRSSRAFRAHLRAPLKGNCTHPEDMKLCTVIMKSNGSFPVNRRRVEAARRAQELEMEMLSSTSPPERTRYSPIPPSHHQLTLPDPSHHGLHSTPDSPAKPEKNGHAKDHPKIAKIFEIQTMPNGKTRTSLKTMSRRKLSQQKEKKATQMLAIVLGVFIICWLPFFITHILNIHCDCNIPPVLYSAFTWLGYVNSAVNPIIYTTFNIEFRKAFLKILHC
Protocol: as §1, §3

T1 sequence (P20309 whole entry): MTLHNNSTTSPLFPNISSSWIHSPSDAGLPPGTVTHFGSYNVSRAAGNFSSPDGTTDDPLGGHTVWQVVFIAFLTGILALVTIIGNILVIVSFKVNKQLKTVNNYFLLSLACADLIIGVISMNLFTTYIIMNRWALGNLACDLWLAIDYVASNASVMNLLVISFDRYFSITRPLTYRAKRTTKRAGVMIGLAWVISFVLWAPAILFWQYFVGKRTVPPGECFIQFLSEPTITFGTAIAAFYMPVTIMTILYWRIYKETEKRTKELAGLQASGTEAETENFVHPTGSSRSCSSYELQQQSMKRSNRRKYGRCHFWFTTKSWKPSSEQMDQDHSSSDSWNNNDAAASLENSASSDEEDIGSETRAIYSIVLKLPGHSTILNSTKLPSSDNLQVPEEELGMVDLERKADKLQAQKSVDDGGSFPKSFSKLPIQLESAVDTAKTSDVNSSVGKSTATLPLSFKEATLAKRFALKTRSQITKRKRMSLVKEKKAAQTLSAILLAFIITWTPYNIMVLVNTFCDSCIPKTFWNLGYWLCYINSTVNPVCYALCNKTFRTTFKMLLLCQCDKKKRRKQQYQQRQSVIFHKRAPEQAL

For `C=CC12CN(C)C3CC14c1ccccc1NC4C1CC2C3CO1` (stereo not drawn) [DK], the Ki (M3R) was 55.2 ± 11 µM, the “efficacy (maximal inhibition of radioligand binding)” value (M3R) was 74.6% and the “maximum DMR response compared with endomorphin-1” value (mu opioid receptor (MOR)) was “half of the maximum DMR response of endomorphin-1”. The “DMR response after naloxone pretreatment” value (mu opioid receptor (MOR); 100 μM DK, naloxone pretreatment one hour) was “could be antagonized by naloxone”, the EC50 (mu opioid receptor (MOR); DMR agonist assay, read-out: EC50 of DMR response) was 16.3 ± 1.05 µM and the “concentration-dependent DMR response at MOR compared with purified DK” value (mu opioid receptor (MOR); semisynthesized material) was “its activity was close to that of purified DK”. For the same compound, the “reduction of probe DMR response (desensitization)” value (“reduction of probe DMR response” for short) [1] was “almost unable to reduce the response”, the “inhibition of carbachol-induced Ca2+ response” value (M5R) was “could not concentration-dependently inhibit” and the DMR agonist response (Delta opioid receptor; HEK293-Delta cells) was “unable to trigger a concentration-dependent DMR response”. The “probe-induced DMR response after DK pretreatment” value (Delta opioid receptor; HEK293-Delta, 2.5 μM SNC162, pretreatment one hour) was “had little effect on the DMR response produced by the respective probes”, the “antagonist effect at high concentration (decrease of probe DMR response)” value (Delta opioid receptor; HEK293-Delta, SNC162, high-concentration of DK) was “very weak antagonist effects” and the “reduction of probe DMR response” value (dopamine receptor D1) was “almost unable to reduce the response”. The “reduction of probe DMR response” value (histamine receptor H1) was “almost unable to reduce the response”, the AUC ([2]; male, SD (Sprague-Dawley), rat, iv, plasma, i.v., read-out: (AUC)0-12 h, intravenous injection) was 902 ng·h/mL and the bioavailability ([2]; male, SD (Sprague-Dawley), rat, plasma, oral, i.g. vs i.v.) was 42.6%. The AUC ([2]; male, SD (Sprague-Dawley), rat, po, plasma, i.g., read-out: (AUC)0-12 h, intragastric administration) was 384 ng·h/mL, the “time of highest plasma concentration” value ([2]; intragastric (i.g.) administration) was 15 min and the “reduction of probe DMR response” value (dopamine receptor D2) was “almost unable to reduce the response”.

Reference: article PMC12302426, “Dihydrokoumine, a dual-target analgesic with reduced side effects isolated from a traditional Chinese medicine” (Journal of Advanced Research, 2024)
